Assay results taken from publication PMC13112199 (Nature nanotechnology, 2025).
Entries after “also recorded” stand apart in the source; their conditions may differ.

Legend:
[1] = UPLC in vitro release assay of small molecules from MDP hydrogels; format: physicochemical
[2] = system: blood glucose levels; test: Mouse type 1 diabetes model, blood glucose control; format: in vivo; conditions: 3 IU sc without a hydrogel, diabetic mice
[3] = female, BALB/c, mouse, in vivo, sc
[4] = Bortezomib pharmacokinetics after subcutaneous injection; conditions: 175 ng sc, alone without hydrogel
[5] = UV–vis stability of dynamic covalent bonding motifs in solution; conditions: pH 7.4 PBS, over 15 days
[6] = Boronate ester association; format: physicochemical; conditions: SHA vs catechol, across boronic acids
[7] = system: M. tuberculosis H37Rv; test: Mouse model of acute tuberculosis, lung CFU counts; format: in vivo, Mycobacterium tuberculosis; conditions: for reduction of colony-forming units in lungs: 600 μg single sc injection without hydrogel; for reduction in bacterial burden compared with vehicle control: ten oral doses of 60 μg
[8] = high doses; cited from earlier work
[9] = Stability of ganfeborole loaded in hydrogels quantified by UPLC; format: physicochemical
[10] = Ganfeborole pharmacokinetics after subcutaneous injection
[11] = from Cat-K2 hydrogel, first 2 h
[12] = from nitroCat-K2 hydrogel, 24 h
[13] = from unmodified K2 hydrogel, first 2 h, 10 mg ml^-1 peptide, PBS, 37 °C
[14] = 600 μg in SHA-E2, non-compartmental analysis
[15] = 600 μg in SHA-K2 vs drug alone, non-compartmental analysis

COCCOc1nc(N)c2[nH]c(=O)n(Cc3ccc(C(=O)O)cc3)c2n1 [Compound 1V209]
in vitro release kinetics from SABER hydrogels ([1]; drug without BA, SABER hydrogels vs K2): no altered release kinetics were observed

insulin: commercially purchased unmodified insulin
time until mice became hyperglycemic again [2]: ≤ 4 h
time until mice became hyperglycemic again ([2]; listed as unmodified insulin): less than 4 h

CC(C)C[C@H](NC(=O)[C@H](Cc1ccccc1)NC(=O)c1cnccn1)B(O)O [bortezomib]
drug released in vitro [1, 11]: > 57.1%
glucose dependence of in vitro release ([1]; from SHA-K2, physiologically relevant glucose range): independent of glucose concentration
drug released in vitro ([1]; from SHA-K2 hydrogel, 2 h): 15–25%
drug released in vitro ([1]; from SHA-K2 hydrogel, 24 h): 50–70%
drug released in vitro ([1]; from nitroCat-K2 hydrogel, 2 h): 15–25%
drug released in vitro [1, 12]: 50–70%
drug released in vitro [1, 13]: > 82.3%
blood concentration at 336 h relative to peak-matched 175 ng control [3]: 2.7 fold
maximum concentration [4]: 21.2 ± 3.1 ng/mL

OB1OCc2cc(F)ccc21 [tavaborole]
drug released in vitro ([1]; from Cat-K2 hydrogel, 24 h): 80.0 ± 4.7%
drug released in vitro ([1]; from SHA-K2 hydrogel, 24 h): 49.1 ± 0.3%
drug released in vitro [1, 12]: 64.8 ± 0.9%

CC(C)C[C@H](NC(=O)CNC(=O)c1cc(Cl)ccc1Cl)B(O)O [ixazomib]
drug released in vitro [1, 11]: > 57.1%
drug released in vitro ([1]; from SHA-K2 hydrogel, 2 h): 15–25%
drug released in vitro ([1]; from SHA-K2 hydrogel, 24 h): 50–70%
drug released in vitro ([1]; from nitroCat-K2 hydrogel, 2 h): 15–25%
drug released in vitro [1, 12]: 50–70%
drug released in vitro [1, 13]: > 82.3%

O=C(NO)c1ccccc1O [SHA, salicylhydroxamic acid]
stability in solution by UV–vis [5]: excellent stability over 15 days in solution
boronate ester association constant relative to catechol association constants [6]: 6.5- to 9.6 fold

NC[C@H]1OB(O)c2c(OCCO)ccc(Cl)c21 [ganfeborole]
bacterial burden reduction compared with oral dosing ([7]; 600 μg single injection in SHA-E2 vs ten oral doses): ~10 fold
reduction in bacterial lung burden compared with vehicle control ([7]; 600 μg single sc injection in SHA-E2, 7 days): 2.58 log10
reduction in bacterial lung burden compared with vehicle control ([7]; 600 μg single sc injection in SHA-E2, 14 days): 4.12 log10
reduction of colony-forming units in lungs ([7]; 7 days): 0.95 log10
reduction of colony-forming units in lungs ([7]; 14 days): 1.55 log10
reduction in bacterial burden compared with vehicle control ([7]; 7 days): 1.67 log10
reduction in bacterial burden compared with vehicle control ([7]; 14 days): 3.32 log10
tolerability in humans [8]: well tolerated in humans at high doses
in vitro release rate ([1]; from K2 hydrogel): similarly rapid release rates
drug released in vitro ([1]; from K2 hydrogel, 30 min): 59.0 ± 1.1%
in vitro release ([1]; from SHA-E2 hydrogel, loaded at 0.5 mg ml^-1): significantly slowed the release; also recorded: performed similarly to SHA-K2
drug released in vitro ([1]; from SHA-K2 hydrogel, 24 h): 48.7 ± 2.5%
in vitro release rate ([1]; from SHA-K2 hydrogel, compared with K2): significantly extend the release
in vitro release rate ([1]; from nitroCat-K2 hydrogel): similarly rapid release rates
stability of drug loaded in hydrogel ([9]; in Cat-K2): rapid oxidative degradation; also recorded: rapidly degrades the compound
stability of drug loaded in hydrogel ([9]; in K2, nitroCat-K2 and SHA-K2 (all hydrogels except Cat-K2), two weeks): majority of the drug remains stable over the course of two weeks
in vivo release ([10]; 75 μg sc in 50 μl of 10 mg ml^-1 K2): unable to prolong drug release in vivo
duration of concentration above the EC50 relative to other groups ([10]; 75 μg sc in 50 μl of 10 mg ml^-1 SHA-K2, EC50 ref 51): over 4 fold
in vivo release ([10]; 75 μg sc in 50 μl of 10 mg ml^-1 nitroCat-K2): unable to prolong drug release in vivo
in vivo release compared with unmodified E2 hydrogel ([10]; 600 μg in 200 μl of 20 mg ml^-1 SHA-E2): prolongs drug release
enhancement of half-life compared with ganfeborole alone ([10]; 600 μg in SHA-E2): over 10 fold
effect on Cmax [10, 14]: reduces the maximum circulating concentration
effect on drug exposure (AUC) [10, 14]: improves drug exposure
effect on Cmax ([10]; 600 μg in SHA-K2 vs drug alone): reducing the maximum drug concentration
improvement of AUC [10, 15]: 2.8 fold
increase of half-life [10, 15]: 6.5 fold
